Experimental data taken from PubChem BioAssay AID2742 (NMMLSC, 2010).
Activity calls are given as the source filed them.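 The calls were made as follows: active = fitted half-maximal concentration for changing background-corrected GFP signal at or below a set limit; inactive = the rest.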

assay: modulators of MEP2-GFP levels in yeast, dose response, S. cerevisiae, flow cytometry GFP, MLPCN hits (AID 2742);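 also: GFP tag reports level of MEP2 protein as a downstream target of TOR signalling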; settings: S. cerevisiae MEP2-GFP strain, flow cytometry fluorescence, 3 h; at 33 µM (top of the series)

Structure (SMILES)	GFP fluorescence (kMESF), higher = increase
O=C1C=CC(=O)N1c1ccc(OC(F)F)cc1	3.81 kMESF (inactive)
CC1=NNC(=O)/C1=C\c1cn(-c2ccccc2)nc1-c1ccccc1	3.11 kMESF (inactive)
O=c1[nH]c(-c2ccc(Cl)cc2)cs1	1.62 kMESF (inactive)
CCCCc1ccc(NC(=O)CC(C)=O)cc1	2.02 kMESF (inactive)
C#CCOCCOCCOCCNc1nc(N2CCN(C(=O)CCCCCCCCCCNC(=O)[C@H](CCCCN)n3cc(CCO)nn3)CC2)nc(N2CCN(C(=O)CCCCCCCCCCNC(=O)[C@H](CCCN=C(N)N)n3cc(C[C@@H](C)CC)nn3)CC2)n1	3.54 kMESF (inactive)
O=C1CC(c2ccccc2)=NN1c1nc(-c2ccccc2)cs1	2.83 kMESF (inactive)
C#CCOCCOCCOCCNc1nc(N2CCN(C(=O)CCCCCCCCCCNC(=O)[C@H](CCCCN)n3cc(C)nn3)CC2)nc(N2CCN(C(=O)CCCCCCCCCCNC(=O)[C@H](CCCN=C(N)N)n3cc(C[C@@H](C)CC)nn3)CC2)n1	3.34 kMESF (inactive)
CCCCS(=O)(=O)/C=C\C=C/S(=O)(=O)CCCC	5.41 kMESF (inactive)
O=C(Nc1nnc(-c2ccc3c(c2)CCCC3)o1)c1ccc(Cl)cc1Cl	3.77 kMESF (inactive)
O=C1Nc2ccccc2/C1=C\C(=O)c1ccccc1	5.08 kMESF (inactive)
CC1=CC(=O)C(C(C)C)=C/C1=N/OS(=O)(=O)c1ccccc1	3.47 kMESF (inactive)
O=C(CS(=O)c1ccccc1[N+](=O)[O-])Oc1ccc(Br)cc1 (centres undefined)	4.43 kMESF (inactive)
Cc1ccc(NC(=O)ON=C2CCCC2)cc1	3.26 kMESF (inactive)
CC(=O)NN1C(=O)/C(=C/c2ccc(Br)o2)SC1=S	-0.17 kMESF (inactive)
O=C(Nc1ccccc1)ON=C1CCCC1	2.76 kMESF (inactive)
COC(=O)/C(=C/c1c[nH]c2ccccc12)[N+](=O)[O-]	4.87 kMESF (inactive)
COc1ccccc1[C@@]1(C)ON(c2ccccc2C(F)(F)F)C1=O	5.08 kMESF (inactive)
COc1cccc(/C=C2\SC(=S)N(CCCC(=O)Nc3ccc(C(=O)O)cc3)C2=O)c1	1.55 kMESF (inactive)
O=C(Nc1nnc(-c2ccc(Cl)cc2)o1)c1ccccc1Br	4.01 kMESF (inactive)
COC(=O)c1cc(N2C(=O)C3C(C2=O)C2(C)C=CC3(C)O2)ccc1Cl (centres undefined)	4.8 kMESF (inactive)
COc1cc(/C=C2\C(=O)ON=C2c2ccccc2)cc(Br)c1O	4.31 kMESF (inactive)

Structure (SMILES)	GFP fluorescence (kMESF), higher = increase
O=C(Nc1nnc(-c2ccc(F)cc2)o1)c1cc(Cl)sc1Cl	3.38 kMESF (inactive)
O=[N+]([O-])c1cc(Cl)c2cccnc2c1O	5.35 kMESF (inactive)
CCCCCn1c(=O)c(C(=O)Nc2nc3ccccc3[nH]2)c(O)c2ccccc21	1.97 kMESF (inactive)
N/C(=N\OC(=O)c1ccc(Cl)cc1Cl)c1ccccc1	3.21 kMESF (inactive)
O=C(O)c1cccc(S(=O)(=O)Nc2ccc(S(=O)(=O)N3CCOCC3)cc2)c1	2.77 kMESF (inactive)
CCN(CC)c1ccc2cc(-c3nc4ccccc4[nH]3)c(=O)oc2c1	6.39 kMESF (inactive)
CCSc1nnc(NC(=O)c2ccccn2)s1	4.39 kMESF (inactive)
O=[N+]([O-])c1ccc(-c2cn3nc(-c4ccccc4)c(-c4ccccc4)nc3n2)cc1	4.08 kMESF (inactive)
CC(C)C[C@]1(c2ccccc2)ON(c2ccccc2C(F)(F)F)C1=O	2.97 kMESF (inactive)
COc1ccc(NC(=O)/C(Cl)=C(/Cl)S(=O)Cc2ccccc2)cn1 (centres undefined)	4.75 kMESF (inactive)
CS(=O)(=O)c1nc(-c2cccs2)cc(C(F)(F)F)n1	6.41 kMESF (inactive)
N/C(=N\OC(=O)c1ccccc1Cl)c1ccc(Cl)cc1	3.91 kMESF (inactive)
CC(=O)SC(C[N+](=O)[O-])c1cn(C(C)=O)c2ccccc12 (centres undefined)	6.37 kMESF (inactive)
Cc1cc(O)c(C(=O)/C=C/c2ccc(Cl)cc2)c(=O)o1	4.13 kMESF (inactive)
Oc1cc(-c2ccc(N3CCCCC3)nc2)cc2cccnc12	3.04 kMESF (inactive)
Oc1c(C(Nc2nc3ccccc3s2)c2ccco2)ccc2cccnc12 (centres undefined)	5.51 kMESF (inactive)
COc1cccc2cc(-c3nc4ccccc4o3)c(=O)oc12	1.66 kMESF (inactive)
COc1ccc(N2CCN(C(=O)c3ccc(Br)cc3)CC2)c([N+](=O)[O-])c1	2.28 kMESF (inactive)
O=[N+]([O-])c1cc(Cl)cc(/C=N\Nc2ccccn2)c1O	4.91 kMESF (inactive)
COc1ccc(N2C(=O)/C(=C/c3cccs3)C(=O)NC2=S)cc1	4.01 kMESF (inactive)
COc1ccccc1-c1nc2s/c(=C\c3cccs3)c(=O)n2n1	5.28 kMESF (inactive)

Structure (SMILES)	GFP fluorescence (kMESF), higher = increase
O=C1N(c2ccccc2C(F)(F)F)O[C@@]1(c1ccccc1)C1CCCCC1	2.87 kMESF (inactive)
C=CCOc1ccc(C(=O)/C=C2/C(=O)Nc3ccccc32)cc1	3.85 kMESF (inactive)
Cc1c(C(=O)Nc2nc(-c3ccccn3)cs2)oc2ccccc12	4.49 kMESF (inactive)
O=C(Nc1ccc(NC(=O)c2cc3ccccc3o2)cc1)c1ccco1	2.1 kMESF (inactive)
O=C(COc1ccc(F)cc1Cl)Nc1nc(-c2ccccn2)cs1	4.88 kMESF (inactive)
COc1ccc(NC(=O)/C(C#N)=C/c2ncc([N+](=O)[O-])n2C)c(OC)c1	4.5 kMESF (inactive)
O=C(O)c1ccc(COc2ccccc2C=C2C(=O)c3ccccc3C2=O)cc1	1.54 kMESF (inactive)
CCCCCCCCC/C(=N\O)c1ccccn1	3.61 kMESF (inactive)
Cc1cc(C)c(C)c(S(=O)(=O)ON2C(=O)c3ccccc3C2=O)c1C	4.23 kMESF (inactive)
CCCCc1ccc(/C=C2/C(=O)ON=C2c2ccccc2)s1	2.26 kMESF (inactive)
COc1cc(N=c2ssnc2Cl)cc(OC)c1	4.07 kMESF (inactive)
O=C(CCS(=O)(=O)c1ccccc1)Nc1nc(-c2ccccn2)cs1	1.34 kMESF (inactive)
O=[N+]([O-])c1ccc(S(=O)(=O)c2ccccc2)nc1	5.25 kMESF (inactive)
COc1ccccc1C(=O)NNC(=S)NC(=O)c1cccs1	4.73 kMESF (inactive)
CN(C)C(=O)Oc1ccnc2cc(Cl)ccc12	3.58 kMESF (inactive)
O=C1N(c2ccccc2C(F)(F)F)O[C@@]1(c1ccccc1)C1CCCC1	2.17 kMESF (inactive)
Oc1c(CN2CCCCC2)cc(Br)c2cccnc12	5.16 kMESF (inactive)
Cc1ccc(/C=C2\C(=O)NC(=S)N(c3ccc(F)cc3)C2=O)s1	4.08 kMESF (inactive)
Cn1c(=O)c(C(=O)NNC(=O)c2ccc(Br)cc2)c(O)c2ccccc21	3.4 kMESF (inactive)
Cc1ccc2nc(/C(C#N)=C/c3ccc(O)c(O)c3)[nH]c2c1	4.49 kMESF (inactive)
CCc1nc2ccccc2c(=O)n1NC(=O)c1c(O)c2ccccc2n(CC)c1=O	2.98 kMESF (inactive)

Structure (SMILES)	GFP fluorescence (kMESF), higher = increase
COc1ccc(-c2cc3nc4n(c(=O)c3s2)CCC4)cc1	1.07 kMESF (inactive)
COc1ccc2c(c1)c1nnc(SC)nc1n2C	1.9 kMESF (inactive)
Oc1c(C(Nc2cccc(C(F)(F)F)c2)c2ccncc2)ccc2cccnc12 (centres undefined)	4.71 kMESF (inactive)
O=C1C(Cl)=C(Nc2ccccc2O)C(=O)N1CCc1ccccc1	3.11 kMESF (inactive)
O=C(Oc1c(Cl)cc(Cl)c2cccnc12)c1ccco1	9.81 kMESF (inactive)
COc1cccc(N=Nc2ccc(O)c3ncccc23)c1	5.8 kMESF (inactive)
N/C(Cc1ccc(Cl)cc1)=N\OC(=O)c1cccc2ccccc12	3.73 kMESF (inactive)
CC(C)(C)C1C/C(=C/c2ccccn2)C(=O)/C(=C/c2ccccn2)C1 (centres undefined)	2.67 kMESF (inactive)
CCC(=O)Oc1oc(-c2ccccc2)nc1C=Nc1ccc(C)cc1	3.2 kMESF (inactive)
Clc1cccc(CN2COc3c(cc(Cl)c4cccnc34)C2)c1	8.07 kMESF (inactive)
Cc1ccc(/C=C/C(=O)c2ccc([N+](=O)[O-])o2)cc1	3.92 kMESF (inactive)
COc1ccc(N2C(=O)C(Cl)=C(Oc3cccc(OC)c3)C2=O)cc1	4.18 kMESF (inactive)
C[C@H]1C[C@@H](C)C(=O)[C@@H]([C@H](O)CC2CC(=O)NC(=O)C2)C1	3.18 kMESF (inactive)
CC(Oc1cccc(Cl)c1)C(=O)Nc1nc(-c2ccccn2)cs1 (centres undefined)	5.7 kMESF (inactive)
O=C1N(c2ccccc2C(F)(F)F)O[C@]1(c1ccccc1)C1CCCC1	2.4 kMESF (inactive)
Cc1ccc(-c2nc(N)c3c(-c4ccc(C)cc4)nn(C(C)(C)C)c3n2)cc1	1.65 kMESF (inactive)
CCCCOc1ccc(C(=O)NNC(=S)NC(=O)CC)cc1	6.17 kMESF (inactive)
COc1cc(/C=C/[N+](=O)[O-])ccc1O	3.88 kMESF (inactive)
O=C(Oc1oc(-c2ccco2)nc1C=Nc1ccccc1)c1ccco1	4.57 kMESF (inactive)
Cc1ccc(C2=NOC(=O)/C2=C\c2ccc(C)o2)cc1	2.14 kMESF (inactive)
COc1ccc(N=Cc2nc(-c3ccccc3)oc2OC(=O)c2ccccc2)cc1	2.68 kMESF (inactive)
